Assay results taken from patent US20170036969A1, “NITRIFICATION INHIBITORS” (BASF SE, priority 2014, published 2017).

Tested on: nitrification in soil sampled fresh from a field (e.g. Limburgerhof)
Assay: Soil nitrification inhibition test (48 well plate, ammonium sulfate + NaClO3, colour reaction read at 540 nm)
Conditions: dose of 10 ppm, room temperature, up to 72 hrs
Method: Soil was sampled fresh from a field (e.g. Limburgerhof), dried and sieved through a 500 μm sieve. Approximately 200 mg of soil were placed into each well of a 48 well plate. Compounds, or DMSO alone, were added at a concentration of 10 ppm, dissolved in 1% DMSO. 6 μmol ammonium sulfate was added per well as well as 4.8 mg NaClO3.
Subsequently, the samples were incubated at room temperature for up to 72 hrs. After the incubation period 64 mg KCl were added and mixed. 25 μl of the supernatant were placed into a fresh plate and 260 μl of a color reaction solution (from Merck Nr 1.11799.0100) were added.
Measurements were taken with a Tecan plate Reader at 540 nm wavelength.
The inhibition in % is calculated by the equation [(a−b)/a]×100, wherein a is the nitrification rate in the presence of the control (which is assumed to be 100%), and b is the nitrification rate in the presence of the tested compound.

SMILES | Rating (inhibition; best rating obtained for a compound)
C#CCOc1ccc(OCC#C)cc1 | 66%
C#CCOc1cccc(C(O)C#C)c1 (stereo not shown) | 61%
C#CCOc1ccc(Cl)cc1 | 59%
C#CCOc1ccc(OC)cc1 | 58%
C#CCOc1ccc(C(=O)N2CCOCC2)cc1 | 57%
C#CCOc1cc(N)c(F)cc1Cl | 62%
C#CCOc1cc(NC(=S)N(N)CCO)c(F)cc1Cl | 56%
C#CCOc1ccc(NC(=O)N(C)C)cc1Cl | 55%
C#CCOc1ccc(C#N)cc1 | 53%
C#CCOc1cc(NC=O)c(F)cc1Cl | 48%
